Data on one substance can be found in patent publication US20100260680A1, “NOVEL BONE MASS INCREASING AGENT” (ORIENTAL YEAST CO., LTD., priority 2007, published 2010).

Bridges are numbered along the chain shown (N, C = ends). Where no end group is shown, it is not given here.

One assay deals with MC3T3-E1 cells. The experiment in a line: ALP activity determination in MC3T3-E1 cells. The assay is classed as cell-based, mouse. Here is the method: (§1) Seven days after differentiation, the culture supernatant was removed from each plate and the cells were fixed with an acetone/ethanol solution. The ALP activity was determined using p-nitrophenyl phosphate as a substrate. Specifically, a carbonate buffer (5 mM MgCl2, 50 mM NaHCO3) containing p-nitrophenyl phosphate (Nacalai) (1 mg/mL) was added to each well (100 μL/well), followed by incubation at 37° C. Then, the OD value at 405 nm was determined with the use of a microplate reader (BMG Labtech) for each well.
Cells mixed with 10% FBS+αMEM (GIBCO) were seeded on a 96-well plate (8×10^3 cells/well) and a 48-well plate (2×10^4 cells/well). The culture supernatant of each plate was replaced with 10% FBS+αMEM containing 5 mM β glycerophosphoric acid (SIGMA)+10 μg/mL sodium ascorbate (SIGMA) 48 hours later. Then, the medium was replaced with new medium every 3 or 4 days. As a control, MC3T3-E1 was cultured with the use of 10% FBS+αMEM as a maintenance medium. Upon medium replacement, a peptide was added to each plate at a concentration of 300 μM, ALP activity determination and alizarin red S staining were carried out by the method described in Example 1 on Days 7 and 21.
MC3T3-E1 cells mixed with 10% FBS+αMEM (SIGMA) were seeded on a 96-well plate (1.5×10^4 cells/well). After 12 hours, the medium was removed therefrom and a medium containing an SB203580 p38 inhibitor (Calbiochem) was added thereto. […] Then, ALP activity determination was carried out by the method described in Example 1.
Similarly, rhDkk-1 (R&D) was added as a Wnt antagonist at concentrations of 0.25, 0.5, and 1 μg/ml. After 1 hour, 200 μM peptide D was added thereto, followed by culture for 5 days. Then, ALP activity determination was carried out by the method described in Example 1.
In addition, as described above, BMPR-IA (R&D) was added as a BMP antagonist at concentrations of 0.25 and 1 μg/ml. […] Then, ALP activity determination was carried out by the method described in Example 1. […] Based on the above results, it was likely that actions of peptide D depend on BMP induction or BMP produced constantly and spontaneously by cells.
MC3T3-E1 cells mixed with 10% FBS+α MEM (SIGMA) were seeded on a 96-well plate (1.5×10^4 cells/well).
Further, peptide D and peptide E were compared with each other in terms of ALP activity enhancement actions in MC3T3-E1 cells. Peptide D and peptide E were used at concentrations of 25, 50, 100, and 200 μM for culture under the conditions described in Example 14, followed by determination of ALP activity by the method described in Example 1.
MC3T3-E1 cells (mouse osteoblast precursor cells) mixed with 10% FBS+αMEM (SIGMA) were seeded on a 96-well plate (2×10^4 cells/well). After cell adhesion, the medium was removed therefrom, followed by ALP activity determination in the cases involving the addition of 50 and 150 μM peptide D (acetate and hydrochloride). […] On Day 5 after the addition of the individual factors, the culture supernatant was removed, followed by ALP activity determination by the method described in Example 1.
MC3T3-E1 cells (mouse osteoblast precursor cells) mixed with 10% FBS+αMEM (SIGMA) were seeded on a 96-well plate (2×10^4 cells/well). After cell adhesion had taken place, the medium was removed therefrom, followed by determination of ALP activity in the cases involving the mixing of 5 ng/mLBMP-2 (produced by CHO cells) with 6.25, 12.5, 25, 50, and 100 μM synthetic peptide D. On Day 5 after the addition of the individual factors, the culture supernatant was removed, followed by ALP activity determination by the method described in Example 1.
At the end of the experiment, synergistic effects of synthetic peptide D in the form of acetate and BMP-4 (R&D) were also examined. MC3T3-E1 cells (mouse osteoblast precursor cells) mixed with 10% FBS+αMEM (SIGMA) were seeded on a 96-well plate (2×10^4 cells/well). […]

Assay [1] has as its system Human mesenchymal stem cells. The experiment in a line: ALP activity determination in human mesenchymal stem cells. It counts as cell-based. As to conditions: Day 7, differentiation medium and maintenance medium. The protocol:
Human mesenchymal stem cells were seeded on a 96-well plate (1×10^3 cells/well) (Nunc) and a 48-well plate (2.4×10^3 cells/well) (IWAKI). After 24 hours, the culture supernatant was removed from each plate and an osteoblast differentiation induction medium (Lonza) was introduced thereonto. The medium was replaced with new medium every 3 or 4 days.
At such time, peptide D was added at a concentration of 100 μM (group treated with peptide D). As a negative control, the control peptide was added at the same concentration.
as §1
Human mesenchymal stem cells (hMSC; Lonza) were seeded on a 96-well plate (Nunc) (2×10^3 cells/well). After cell adhesion had taken place, the medium was replaced with a differentiation medium prepared by adding 100 nM dexamethasone (SIGMA), 10 mM BGP(SIGMA), and 50 μg/mL ascorbic acid to a dedicated maintenance medium (Lonza). […]

Regarding “peptide D: cyclic peptide of SEQ ID NO: 7, 9 amino acids, two cysteine residues bound via a disulfide bond; binds to RANKL (YCWSQYLCY; disulfide 2-8 (inferred))”, the ALP activity result in the assay with MC3T3-E1 cells (150 μM peptide D combined with 30 ng/mL BMP-2) is on record as “additive actions of ALP activity enhancement”; in the assay with MC3T3-E1 cells (300 μM, Day 7 after differentiation), “significantly increased”; in the assay on MC3T3-E1 cells (25, 50, 100 and 200 μM, 5 days), “enhance ALP activity in a concentration-dependent manner”; in assay [1] (300 μM), “significant increase in ALP activity”; in assay [1] (peptide D 100 μM) it was “significantly increased”. Moreover, the “ALP activity, peptide D compared with peptide E” value with MC3T3-E1 cells (50 and 100 μM) is recorded as “significant enhancement actions compared with peptide E”.
